Assay results reported in patent publication US8461128B2, “Anti-microbial agents and uses thereof” (priority 2005, dated 2013).
≈ marks a conversion by molar mass, not a printed value. Where “and” joins values, the source holds several entries; their conditions need not be identical. Equal entries are not always repeated. Where two headings read alike, the source gives them in different places.

What was measured:
[1] = target: T1, YbtE (Yersinia pestis, UniProt Q56950); experiment: biochemical; assay type: biochemical
T1 sequence (Q56950 1-525): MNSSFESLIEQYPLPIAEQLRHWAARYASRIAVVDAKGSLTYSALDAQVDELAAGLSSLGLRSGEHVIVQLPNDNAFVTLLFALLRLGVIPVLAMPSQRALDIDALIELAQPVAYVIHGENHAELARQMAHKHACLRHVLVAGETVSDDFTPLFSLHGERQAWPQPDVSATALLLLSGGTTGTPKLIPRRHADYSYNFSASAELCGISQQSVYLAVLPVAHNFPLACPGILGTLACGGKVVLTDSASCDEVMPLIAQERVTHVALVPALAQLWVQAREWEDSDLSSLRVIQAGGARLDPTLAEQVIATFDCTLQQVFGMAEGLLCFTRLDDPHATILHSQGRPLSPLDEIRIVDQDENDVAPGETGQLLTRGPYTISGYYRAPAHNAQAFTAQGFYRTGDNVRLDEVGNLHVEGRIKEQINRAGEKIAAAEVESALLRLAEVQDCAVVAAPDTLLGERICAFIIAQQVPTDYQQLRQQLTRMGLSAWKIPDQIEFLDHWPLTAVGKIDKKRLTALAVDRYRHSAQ

[2] = test system: M. tuberculosis H37Rv; experiment: microbe, parasite or virus in culture; assay type: cell-based, Mycobacterium tuberculosis
[3] = test system: Y. pestis KIM6-2082.1+; experiment: microbe, parasite or virus in culture; assay type: cell-based, Yersinia pestis
[4] = target: T1, YbtE; experiment: biochemical
[5] = target: T1, YbtE; settings: cited from earlier work
[6] = Isotopic stability in D2O (NMR); assay type: physicochemical; settings: room temperature
[7] = test system: MBT production in M. tuberculosis; assay type: cell-based, Mycobacterium tuberculosis
[8] = test system: M. tuberculosis H37Rv reference strain; settings: Wanger et al. 1996; cited from earlier work
[9] = test system: 92 Y. pestis strains; settings: cited from earlier work
[10] = Mycobacterium tuberculosis, H37RV

With `CC(OS(=O)(=O)NC(=O)c1ccccc1O)[C@H]1O[C@@H](n2cnc3c(N)ncnc32)[C@H](O)[C@@H]1O` (mixture of isomers) [(RS)-5′-methyl-salicyl-AMS] as the molecule, how does the IC50 ([1]; IC50) read?
The IC50 was 0.009 µM.

With `COc1ccccc1C(=O)NS(=O)(=O)OC[C@H]1O[C@@H](n2cnc3c(N)ncnc32)[C@H](O)[C@@H]1O` [2-methoxybenzoyl-AMS] as the molecule, how does the IC50 ([1]; IC50) read?
Its IC50 is > 0.08 µM and 0.065 µM.

What about the IC50 [2, 10] of the same molecule?
The IC50 was over 200 µM.

And the MIC90 [2, 10]?
Its MIC90 is over 200 µM.

Which MIC90 ([3]; Yersinia pestis) does the source give for `CC(=O)Oc1ccccc1C(=O)NS(=O)(=O)OC[C@H]1O[C@@H](n2ccc3ccccc32)[C@H](OC(C)=O)[C@@H]1OC(C)=O` [2′,2″,3′-triacetylsalicyl-IRMS] here?
Its MIC90 is about 500 µM (≈ 287 µg/mL).

And the IC50 ([1]; IC50)?
Its IC50 is 1.8 µM.

What about the IC50 [2] of the same molecule?
Its IC50 is 25 µM and 22 µM and 33 µM and 31 µM and 35 µM.

What about the IC50 [2, 10] of the same molecule?
Its IC50 is 24 µM.

And the MIC90 [2, 10]?
Its MIC90 is about 50 µM (≈ 28.7 µg/mL).

Which MIC90 [2, 10] does the source give for `CC(=O)O[C@@H]1[C@H](OC(C)=O)[C@@H](COS(=O)(=O)NC(=O)c2ccccc2O)O[C@H]1n1cnc2c(N)ncnc21` [2′,3′-diacetyl-salicyl-AMS] here?
Its MIC90 is over 200 µM.

Which results are given for `CC(=O)O[C@@H]1[C@H](OC(C)=O)[C@@H](COS(=O)(=O)NC(=O)c2ccccc2O)O[C@H]1n1ccc2ccccc21` [2′,3′-diacetylsalicyl-IRMS]?
IC50 ([3]; Yersinia pestis): > 200 µM; MIC90 ([3]; Yersinia pestis): > 200 µM; IC50 ([1]; IC50): 3.9 µM; IC50 [2, 10]: > 200 µM; MIC90 [2, 10]: > 200 µM

With `Nc1ncnc2c1ncn2[C@@H]1O[C@H](COS(=O)(=O)NC(=O)c2ccc(O)cc2)[C@@H](O)[C@H]1O` [4-hydroxybenzoyl-AMS] as the molecule, how does the IC50 ([1]; IC50) read?
Its IC50 is > 0.08 µM and 6 µM.

What about the IC50 [2] of the same molecule?
The IC50 was 110 µM.

What about the IC50 [2, 10] of the same molecule?
Its IC50 is over 200 µM.

What about the MIC90 [2, 10] of the same molecule?
Its MIC90 is over 200 µM.

Which IC50 ([1]; IC50) does the source give for `Cc1cccc(O)c1C(=O)NS(=O)(=O)OC[C@H]1O[C@@H](n2cnc3c(N)ncnc32)[C@H](O)[C@@H]1O` [6-methylsalicyl-AMS] here?
The IC50 was 0.023 µM.

Which inhibition of salicylation [1] does the source give for `Nc1ncnc2c1ncn2[C@@H]1O[C@H](COS(N)(=O)=O)[C@@H](O)[C@H]1O` [AMS, 5′-O-Sulfamoyladenosine, reference compound] here?
The inhibition of salicylation was “did not inhibit salicylation”.

What about the inhibition of adenylation [4] of the same molecule?
Its inhibition of adenylation is “did not inhibit adenylation”.

What about the IC50 [2] of the same molecule?
Its IC50 is 39 µM and 43 µM and 55 µM.

And the IC50 [2, 10]?
Its IC50 is 35 µM.

And the MIC90 [2, 10]?
The MIC90 was about 100 µM (≈ 34.6 µg/mL).

Which Km ([4]; read-out: Km ATP) does the source give for `Nc1ncnc2c1ncn2[C@@H]1O[C@H](COP(=O)(O)OP(=O)(O)OP(=O)(O)O)[C@@H](O)[C@H]1O` [ATP] here?
Its Km is 172 µM.

What about the Km ([5]; read-out: Km ATP) of the same molecule?
The Km was 350 µM.

Which results are given for `NS(=O)(=O)OC[C@H]1O[C@@H](n2ccc3ccccc32)[C@H](O)[C@@H]1O` [IRMS]?
IC50 ([1]; IC50): > 20 µM; IC50 [2, 10]: > 200 µM; MIC90 [2, 10]: > 200 µM

For `CC(=O)NS(=O)(=O)OC[C@H]1O[C@@H](n2cnc3c(N)ncnc32)[C@H](O)[C@@H]1O` [acetyl-AMS], which IC50 ([1]; IC50) is on record?
The IC50 was over 400 µM.

With `Nc1ncnc2c1ncn2[C@@H]1O[C@H](COS(=O)(=O)NC(=O)c2ccccc2)[C@@H](O)[C@H]1O` [benzoyl-AMS] as the molecule, how does the IC50 [3] read?
The IC50 was 500 µM.

And the MIC90 ([3]; Yersinia pestis)?
Its MIC90 is over 500 µM.

And the IC50 ([1]; IC50)?
The IC50 was 0.004 µM and 0.012 µM.

And the IC50 [2]?
Its IC50 is 105 µM and 133 µM.

And the MIC90 [2, 10]?
Its MIC90 is over 200 µM.

With `Nc1ncnc2c1nc1n2[C@@H]2O[C@H](COS(=O)(=O)NC(=O)CCCCC1)[C@@H](O)[C@H]2O` [cyclo-hexanoyl-AMS] as the molecule, how does the IC50 ([1]; IC50) read?
The IC50 was over 40 µM.

For `Nc1ncnc2c1nc1n2[C@@H]2O[C@H](COS(=O)(=O)NC(=O)CCCC#C1)[C@@H](O)[C@H]2O` [cyclo-hexynoyl-AMS], which IC50 ([1]; IC50) is on record?
The IC50 was over 40 µM.

With `NNC(=O)c1ccncc1` [isoniazid, reference compound] as the molecule, how does the IC50 [2] read?
Its IC50 is 0.11 µM and 0.08 µM and 0.1 µM.

What about the MIC90 [2] of the same molecule?
Its MIC90 is 0.16 µM (≈ 0.0219 µg/mL).

And the IC50 [2, 10]?
Its IC50 is 0.12 µM.

What about the MIC90 [2, 10] of the same molecule?
Its MIC90 is 0.2 µM (≈ 0.0274 µg/mL).

Which results are given for `Nc1ccc(C(=O)O)c(O)c1` [p-aminosalicylic acid, reference compound]?
IC50 [2]: 0.08 µM; iron-deficient media selectivity [2]: do not exhibit iron-deficient media selectivity; IC50 [2, 10]: 0.09 µM; MIC90 [2, 10]: 0.78 µM (≈ 0.119 µg/mL)

With `Nc1ncnc2c1ncn2[C@@H]1O[C@H](COS(=O)(=O)NC(=O)c2ccccc2O)[C@@H](O)[C@H]1O` [salicyl-AMS, 5′-O—[N-(salicyl)sulfamoyl]-adenosine] as the molecule, how does the activity on growth [3] read?
Its activity on growth is “not active”.

And the IC50 ([3]; Yersinia pestis, read-out: IC50, bacterial growth in iron-limiting media)?
The IC50 was 25 to 52 µM.

What about the IC50 ([3]; Yersinia pestis, read-out: IC50, growth inhibition) of the same molecule?
The IC50 was about 50 µM.

What about the MIC ([3]; Yersinia pestis, read-out: MIC95, growth inhibition) of the same molecule?
Its MIC is 96.7 µM (≈ 45.1 µg/mL).

And the IC50 ([3]; read-out: IC50, growth inhibition)?
Its IC50 is 51.2 ± 4.7 µM.

And the “isotopically stable in D2O” value [6]?
Its value is at least 54 days.

What about the IC50 ([1]; IC50) of the same molecule?
Its IC50 is 0.0145 µM and 0.009 µM.

What about the IC50 ([1]; read-out: IC50) of the same molecule?
Its IC50 is 0.0479 µM.

What about the MBT production [7] of the same molecule?
Its MBT production is “virtually undetectable”.

What about the IC50 [4] of the same molecule?
The IC50 was 0.01 to 0.015 µM.

And the Kd [4]?
The Kd was at most 0.001 µM.

And the Ki [4]?
Its Ki is 0.00035 ± 0.00027 µM.

And the “slope of IC50 versus YbtE concentration” value [4]?
Its value is 0.43.

And the “slope of IC50 versus YbtE concentration, corrected” value [4]?
The value was 0.52.

And the IC50 ([4]; read-out: IC50, inhibition of adenylation activity)?
Its IC50 is 0.0147 ± 0.002 µM.

What about the Ki ([4]; read-out: Ki (non-competitive with respect to salicylate)) of the same molecule?
The Ki was 0.00108 ± 0.00098 µM.

What about the “increase of IC50, iron-supplemented vs iron-deficient” value [2] of the same molecule?
Its value is 18 fold.

And the MIC ([2]; Mycobacterium tuberculosis, H37RV, read-out: MIC95, growth inhibition)?
The MIC was 268 µM (≈ 125 µg/mL).

Which results are given for `O=C(NS(=O)(=O)OC[C@H]1O[C@@H](n2ccc3ccccc32)[C@H](O)[C@@H]1O)c1ccccc1O` [salicyl-IRMS, β-indolyl 5′-O—(N-salicylsulfamoyl)ribose]?
IC50 ([3]; Yersinia pestis): > 500 µM; MIC90 ([3]; Yersinia pestis): > 500 µM; IC50 ([1]; IC50): 0.021 µM; IC50 [2, 10]: > 200 µM; MIC90 [2, 10]: > 200 µM

For `Nc1ncnc2c1ncn2[C@H]1C[C@H](O)[C@@H](COS(=O)(=O)NC(=O)c2ccccc2O)O1` [salicyl-dAMS], which IC50 ([1]; IC50) is on record?
The IC50 was 0.008 µM and 0.014 µM.

For `Nc1ncnc2c1ncn2[C@H]1CC[C@@H](COS(=O)(=O)NC(=O)c2ccccc2O)O1` [salicyl-ddAMS], which MIC90 [2, 10] is on record?
Its MIC90 is about 200 µM (≈ 86.9 µg/mL).

With `O=C(O)c1ccccc1O` [salicylate] as the molecule, how does the Km ([4]; read-out: Km salicylate) read?
Its Km is 5.4 µM.

And the Km ([5]; read-out: Km salicylate)?
The Km was 4.6 µM.

For `[H]/N=C(/N)N[C@H]1[C@H](O)[C@@H](O)[C@H](O[C@@H]2O[C@@H](C)[C@](O)(C=O)[C@H]2O[C@@H]2O[C@@H](CO)[C@H](O)[C@@H](O)[C@@H]2NC)[C@@H](N/C(N)=N\[H])[C@@H]1O` [streptomycin], which MIC [8] is on record?
The MIC was 0.4 to 1.7 µM.

What about the MIC [9] of the same molecule?
Its MIC is 2.6 to 6.9 µM.
